Assay results as given in paper PMC9405973, “Altered Conformational Landscape upon Sensing Guanine Nucleotides in a Disease Mutant of Elongation Factor-like 1 (EFL1) GTPase” (Biomolecules, 2022).

Molecular target: T1, Efl1 mutant T33A in complex with Sdo1 and the 60S subunits (Saccharomyces cerevisiae, UniProt P53893, T33A)
T1 construct: made in house; host or cells: Efl1: Saccharomyces cerevisiae; Sdo1: Escherichia coli C41; 60S subunits purified from S. cerevisiae strain JD1370
T1 sequence (P53893 1-1110 T33A): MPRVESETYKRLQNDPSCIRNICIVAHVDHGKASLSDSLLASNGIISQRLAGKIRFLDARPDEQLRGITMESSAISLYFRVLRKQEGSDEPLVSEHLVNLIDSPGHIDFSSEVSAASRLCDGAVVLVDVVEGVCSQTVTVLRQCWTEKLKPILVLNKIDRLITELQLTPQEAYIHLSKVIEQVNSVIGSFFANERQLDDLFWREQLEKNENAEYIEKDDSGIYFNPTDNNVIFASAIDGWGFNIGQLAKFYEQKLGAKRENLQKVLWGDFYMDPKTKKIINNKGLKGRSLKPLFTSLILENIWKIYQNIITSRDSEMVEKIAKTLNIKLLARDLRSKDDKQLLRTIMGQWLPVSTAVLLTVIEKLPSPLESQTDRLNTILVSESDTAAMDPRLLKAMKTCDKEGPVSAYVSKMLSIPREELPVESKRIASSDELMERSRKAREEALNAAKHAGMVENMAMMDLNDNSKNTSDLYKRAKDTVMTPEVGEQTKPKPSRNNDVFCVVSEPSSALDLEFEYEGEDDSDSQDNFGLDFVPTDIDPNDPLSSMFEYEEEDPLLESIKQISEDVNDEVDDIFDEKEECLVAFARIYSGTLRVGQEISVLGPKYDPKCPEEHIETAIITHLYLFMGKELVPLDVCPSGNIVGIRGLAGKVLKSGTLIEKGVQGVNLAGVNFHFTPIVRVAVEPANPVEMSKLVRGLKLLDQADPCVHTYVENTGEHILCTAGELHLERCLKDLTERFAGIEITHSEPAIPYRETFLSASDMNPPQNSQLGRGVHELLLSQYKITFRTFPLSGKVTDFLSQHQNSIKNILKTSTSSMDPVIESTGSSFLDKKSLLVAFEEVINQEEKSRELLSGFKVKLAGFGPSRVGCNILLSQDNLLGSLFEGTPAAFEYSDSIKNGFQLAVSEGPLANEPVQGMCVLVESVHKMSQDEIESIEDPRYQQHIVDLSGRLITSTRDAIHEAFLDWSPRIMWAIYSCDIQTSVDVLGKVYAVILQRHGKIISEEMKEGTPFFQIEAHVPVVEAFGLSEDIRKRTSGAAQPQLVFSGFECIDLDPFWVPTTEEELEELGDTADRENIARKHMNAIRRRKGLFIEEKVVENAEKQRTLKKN
T1 sequence (Q07953 1-250 partner): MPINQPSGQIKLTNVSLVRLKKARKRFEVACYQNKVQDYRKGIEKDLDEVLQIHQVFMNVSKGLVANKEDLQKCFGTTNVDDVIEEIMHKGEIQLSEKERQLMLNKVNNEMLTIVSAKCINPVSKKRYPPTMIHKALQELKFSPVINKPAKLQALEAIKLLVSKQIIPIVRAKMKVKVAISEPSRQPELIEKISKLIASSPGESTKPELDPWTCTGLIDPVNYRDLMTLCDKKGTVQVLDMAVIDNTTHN
Assay: Steady state fluorescence binding of mant-GTP to Efl1 T33A in complex with Sdo1 and 60S subunits
Settings: 25 °C, one-binding-site model; read-out: dissociation constant (Kd)
Experimental: We measured the binding of different Efl1 constructs present in complex with Sdo1 and 60S subunits to the fluorescence GTP analogue, mant-GTP, by following the increase in the fluorescence signal after excitation at 355 nm. Fluorescence intensities were plotted as a function of increasing nucleotide concentrations, and the dissociation constant (Kd) was calculated by fitting the data to a one-binding-site model (Supplementary Figure S1B).
Hydrolysis of GTP was measured using the Enzchek Phosphate Assay kit (Molecular Probes) as described by Webb. Standard reactions consisted of 100 µL containing 6 µM of Efl1 R1086Q and Efl1 L910K, 0.3 mM MESG, 1.0 U purine nucleoside phosphorylase (PNP) and the indicated amounts of GTP. […]
Reactions were initiated and the GTPase was added after 3 min. Time courses were followed by recording the change in absorbance at 360 nm in a Cary 60 UV -Vis spectrophotometer (Agilent Technologies). Background absorbance was recorded prior to the addition of the GTPase and subtracted from the sample signals. The slope of the measured time courses corresponded to the GTP hydrolysis rate. […] Data were analysed by nonlinear regression to the M ichaelis-Menten equation with the program Origin Version 5.0 (OriginLab, Co., Northampton, MA). […]
Steady state fluorescence measurements […]
Maximum emission at 440 nm was replotted as a function of nucleotide concentration and analysed

In the case of `CNc1ccccc1C(=O)O[C@H]1[C@@H](O)[C@H](n2cnc3c(=O)[nH]c(N)nc32)O[C@@H]1COP(=O)(O)OP(=O)(O)OP(=O)(O)O` [mant-GTP], the Kd is reported as 24 µM.
